Data published in PubChem BioAssay AID248 (DTP/NCI, 2004).
“And” between values parts separate entries of the source, which are not always exact repeats. Equal values may be shown once. Toxic doses and inconclusive results are not listed. Rule as the data show it: active = T/C of 150% or more; inactive = T/C below 125%.

System: L1210 leukemia ip in BDF1 mice, survival T/C
Experiment: NCI In Vivo Anticancer Drug Screen. Data for tumor model L1210 Leukemia (intraperitoneal) in B6D2F1 (BDF1) mice
Details: endpoint: mean survival time, higher = longer survival
How it was run: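 Read-out is survival time, reported as the treated-group measurement over the vehicle-control measurement.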

[1] = dose: 100.0 mg/kg/injection, schedule: Q04DX003 (ip), vehicle: Klucel (hydroxypropylcellulose) (HPC)
[2] = dose: 200.0 mg/kg/injection, schedule: Q04DX003 (ip), vehicle: Klucel (hydroxypropylcellulose) (HPC)
[3] = dose: 50.0 mg/kg/injection, schedule: Q01DX009 (ip), vehicle: saline
[4] = dose: 75.0 mg/kg/injection, schedule: Q01DX009 (ip), vehicle: saline
[5] = dose: 50.0 mg/kg/injection, schedule: Q01DX001 (ip), vehicle: carboxymethylcellulose (CMC)
[6] = dose: 100.0 mg/kg/injection, schedule: Q01DX001 (ip), vehicle: carboxymethylcellulose (CMC)
[7] = dose: 200.0 mg/kg/injection, schedule: Q01DX001 (ip), vehicle: carboxymethylcellulose (CMC)
[8] = dose: 400.0 mg/kg/injection, schedule: Q01DX001 (ip), vehicle: carboxymethylcellulose (CMC)

Measured: T/C

CNCc1ccccc1C(O)c1ccc(Cl)cc1 (configuration not stated)
inactive: dose: 3.12 mg/kg/injection, schedule: Q01DX009 (ip), vehicle: Klucel (hydroxypropylcellulose) (HPC) 98 % of control | dose: 6.25 mg/kg/injection, schedule: Q01DX009 (ip), vehicle: Klucel (hydroxypropylcellulose) (HPC) 96 % of control | dose: 12.5 mg/kg/injection, schedule: Q01DX009 (ip), vehicle: Klucel (hydroxypropylcellulose) (HPC) 96 % of control | dose: 25.0 mg/kg/injection, schedule: Q01DX009 (ip), vehicle: Klucel (hydroxypropylcellulose) (HPC) 94 % of control | dose: 25.0 mg/kg/injection, schedule: Q04DX003 (ip), vehicle: Klucel (hydroxypropylcellulose) (HPC) 97 % of control and 98 % of control | dose: 50.0 mg/kg/injection, schedule: Q01DX009 (ip), vehicle: Klucel (hydroxypropylcellulose) (HPC) 102 % of control | dose: 50.0 mg/kg/injection, schedule: Q04DX003 (ip), vehicle: Klucel (hydroxypropylcellulose) (HPC) 94 % of control | dose: 100.0 mg/kg/injection, schedule: Q01DX009 (ip), vehicle: Klucel (hydroxypropylcellulose) (HPC) 86 % of control | [1] 104 % of control | [2] 122 % of control

O=S1(=O)CCCN1c1ccccn1
inactive: dose: 100.0 mg/kg/injection, schedule: Q04DX002 (ip), vehicle: other 104 % of control | dose: 200.0 mg/kg/injection, schedule: Q04DX002 (ip), vehicle: other 89 % of control | dose: 400.0 mg/kg/injection, schedule: Q04DX002 (ip), vehicle: other 96 % of control

COC1=NS(=O)(=O)N=C(c2ccc(OC)cc2)O1
inactive: dose: 100.0 mg/kg/injection, schedule: Q04DX002 (ip), vehicle: Klucel (hydroxypropylcellulose) (HPC) 103 % of control | dose: 200.0 mg/kg/injection, schedule: Q04DX002 (ip), vehicle: Klucel (hydroxypropylcellulose) (HPC) 100 % of control | dose: 400.0 mg/kg/injection, schedule: Q04DX002 (ip), vehicle: Klucel (hydroxypropylcellulose) (HPC) 89 % of control

Nc1ccc2ncccc2c1
inactive: dose: 25.0 mg/kg/injection, schedule: Q01DX009 (ip), vehicle: saline 97 % of control | [3] 93 % of control | dose: 100.0 mg/kg/injection, schedule: Q01DX009 (ip), vehicle: saline 105 % of control and 90 % of control | dose: 100.0 mg/kg/injection, schedule: Q04DX002 (ip), vehicle: alcohol 96 % of control | dose: 100.0 mg/kg/injection, schedule: Q04DX003 (ip), vehicle: saline 94 % of control | dose: 200.0 mg/kg/injection, schedule: Q01DX009 (ip), vehicle: saline 90 % of control | dose: 200.0 mg/kg/injection, schedule: Q04DX002 (ip), vehicle: alcohol 101 % of control | dose: 200.0 mg/kg/injection, schedule: Q04DX003 (ip), vehicle: saline 96 % of control | dose: 400.0 mg/kg/injection, schedule: Q04DX002 (ip), vehicle: alcohol 109 % of control | dose: 400.0 mg/kg/injection, schedule: Q04DX003 (ip), vehicle: saline 107 % of control

CCCC/C=C/CCCC
inactive: [4] 100 % of control | dose: 300.0 mg/kg/injection, schedule: Q01DX009 (ip), vehicle: saline 86 % of control

CC[N+](CC)(CCOc1ccc(C(C)(C)CC(C)(C)C)cc1)Cc1ccccc1
inactive: dose: 1.25 mg/kg/injection, schedule: Q01DX009 (ip), vehicle: saline with Tween-80 86 % of control

COc1cc(NC(=O)N(CCCl)N=O)cc(OC)c1OC
active: dose: 2.5 mg/kg/injection, schedule: Q01DX009 (ip), vehicle: saline 161 % of control | dose: 5.0 mg/kg/injection, schedule: Q01DX009 (ip), vehicle: saline 177 % of control | dose: 10.0 mg/kg/injection, schedule: Q01DX009 (ip), vehicle: saline 164 % of control | dose: 11.0 mg/kg/injection, schedule: Q01DX009 (ip), vehicle: saline with Tween-80 157 % of control and 216 % of control | dose: 12.0 mg/kg/injection, schedule: Q01DX001 (ip), vehicle: carboxymethylcellulose (CMC) 151 % of control | dose: 15.0 mg/kg/injection, schedule: Q01DX009 (ip), vehicle: saline 164 % of control | dose: 16.6 mg/kg/injection, schedule: Q01DX009 (ip), vehicle: saline with Tween-80 223 % of control | dose: 22.0 mg/kg/injection, schedule: Q01DX009 (ip), vehicle: saline 216 % of control | dose: 25.0 mg/kg/injection, schedule: Q01DX001 (ip), vehicle: carboxymethylcellulose (CMC) 252 % of control | dose: 25.0 mg/kg/injection, schedule: Q01DX001 (ip), vehicle: saline 155 % of control | dose: 25.0 mg/kg/injection, schedule: Q01DX009 (ip), vehicle: saline with Tween-80 208 % of control | dose: 33.0 mg/kg/injection, schedule: Q01DX009 (ip), vehicle: saline 178 % of control | dose: 37.5 mg/kg/injection, schedule: Q01DX001 (ip), vehicle: saline 153 % of control | [3] 260 % of control | dose: 75.0 mg/kg/injection, schedule: Q01DX001 (ip), vehicle: carboxymethylcellulose (CMC) 236 % of control | [4] 173 % of control
inactive: dose: 0.12 mg/kg/injection, schedule: Q01DX009 (ip), vehicle: saline 105 % of control | dose: 0.25 mg/kg/injection, schedule: Q01DX009 (ip), vehicle: saline 118 % of control | dose: 0.5 mg/kg/injection, schedule: Q01DX009 (ip), vehicle: saline 112 % of control | dose: 1.0 mg/kg/injection, schedule: Q01DX009 (ip), vehicle: saline 115 % of control | dose: 1.5 mg/kg/injection, schedule: Q01DX001 (ip), vehicle: carboxymethylcellulose (CMC) 111 % of control | dose: 3.0 mg/kg/injection, schedule: Q01DX001 (ip), vehicle: carboxymethylcellulose (CMC) 108 % of control | dose: 6.0 mg/kg/injection, schedule: Q01DX001 (ip), vehicle: carboxymethylcellulose (CMC) 118 % of control | dose: 37.5 mg/kg/injection, schedule: Q01DX009 (ip), vehicle: saline with Tween-80 110 % of control | [5] 106 % of control

COC(=O)Nc1ccc(C)c(NC(=O)OC)c1
inactive: [1] 104 % of control | [2] 93 % of control | dose: 400.0 mg/kg/injection, schedule: Q04DX003 (ip), vehicle: Klucel (hydroxypropylcellulose) (HPC) 107 % of control

c1ccc(Sc2cc(Sc3ccccc3)c3cccccc2-3)cc1
inactive: [6] 96 % of control | [7] 100 % of control | [8] 87 % of control

Cc1cc2c(=S)nc(N)[nH]c2nc1C
inactive: dose: 100.0 mg/kg/injection, schedule: Q01DX Z (ip), vehicle: methylcellulose (MC) 105 % of control | dose: 200.0 mg/kg/injection, schedule: Q01DX Z (ip), vehicle: methylcellulose (MC) 103 % of control

CCC(CC)(CC#N)C1CCCCC1
inactive: [5] 98 % of control | [6] 104 % of control | [7] 98 % of control | [8] 104 % of control

CCOC(=O)NN=C1CCCC1
inactive: dose: 50.0 mg/kg/injection, schedule: Q01DX009 (ip), vehicle: saline with Tween-80 94 % of control | dose: 100.0 mg/kg/injection, schedule: Q01DX009 (ip), vehicle: saline with Tween-80 97 % of control

C=CCNC(=O)C1C2C=CC(C2)C1C(=O)NCC=C (configuration not stated)
inactive: dose: 100.0 mg/kg/injection, schedule: Q04DX003 (ip), vehicle: saline with Tween-80 103 % of control | dose: 200.0 mg/kg/injection, schedule: Q04DX003 (ip), vehicle: saline with Tween-80 103 % of control

CC(C)C(=O)OCC(=O)c1ccc(-c2ccccc2)cc1
inactive: dose: 100.0 mg/kg/injection, schedule: Q01DX001 (ip), vehicle: saline 100 % of control | dose: 200.0 mg/kg/injection, schedule: Q01DX001 (ip), vehicle: saline 94 % of control | dose: 400.0 mg/kg/injection, schedule: Q01DX001 (ip), vehicle: saline 111 % of control

CC(=O)[O][Sn]([CH2]c1ccccc1)([CH2]c1ccccc1)[O]C(C)=O
inactive: dose: 100.0 mg/kg/injection, schedule: Q01DX009 (ip), vehicle: other 109 % of control | dose: 100.0 mg/kg/injection, schedule: Q04DX003 (ip), vehicle: other 92 % of control | dose: 200.0 mg/kg/injection, schedule: Q01DX009 (ip), vehicle: other 98 % of control | dose: 200.0 mg/kg/injection, schedule: Q04DX003 (ip), vehicle: other 97 % of control | dose: 400.0 mg/kg/injection, schedule: Q01DX009 (ip), vehicle: other 95 % of control | dose: 400.0 mg/kg/injection, schedule: Q04DX003 (ip), vehicle: other 95 % of control

Nc1nc(N)c(-c2ccc(Cl)c(Cl)c2)c(CCc2ccc(CNC(=O)c3cc(S(=O)(=O)F)ccc3Cl)cc2)n1
inactive: dose: 100.0 mg/kg/injection, schedule: Q01DX001 (ip), vehicle: saline with Tween-80 97 % of control | dose: 200.0 mg/kg/injection, schedule: Q01DX001 (ip), vehicle: saline with Tween-80 94 % of control | dose: 400.0 mg/kg/injection, schedule: Q01DX001 (ip), vehicle: saline with Tween-80 94 % of control
